Data taken from ChEMBL document CHEMBL3832057.

Tested on: Homo sapiens
Test: Evaluation of pharmacokinetic parameters for Rifampin in serum following single oral administration of 10 mg/kg Rifampin to pediatric patients.
Assay type: ADME, organism-based
Parameters: dose 600 mg, dose 10 mg/kg, route oral
Settings: in vivo, dosed compound id 35, dosed compound name RIFAMPICIN, gender male and female, regimen Single dose, tissue Serum

CO[C@H]1/C=C/O[C@@]2(C)Oc3c(C)c(O)c4c(O)c(c(/C=N/N5CCN(C)CC5)c(O)c4c3C2=O)NC(=O)/C(C)=C\C=C\[C@H](C)[C@H](O)[C@@H](C)[C@@H](O)[C@@H](C)[C@H](OC(C)=O)[C@@H]1C [RIFAMPIN]
Tmax: 1 h
